The text below walks through data of PMC9866541, “Flavonoid Derivatives as New Potent Inhibitors of Cysteine Proteases: An Important Step toward the Design of New Compounds for the Treatment of Leishmaniasis” (Microorganisms, 2023).

Like-named read-outs stand apart in the source and are kept apart here.

For series [1], the system named is Promastigote forms of L. amazonensis. In words: Antipromastigote assay (MTT). The format is cell-based, Leishmania amazonensis. The settings on record: for IC50: Leishmania amazonensis, 72 h, read-out: Promastigote IC50; for SI (selectivity index): GL50 in NIH/3T3 cells / IC50 in extracellular promastigotes. The procedure: A standard strain of Leishmania (Leishmania amazonensis) (IFLA/BR/1967/PH8) was used for the evaluation of in vitro antileishmanial activity. The promastigote forms were grown in Schneider’s insect medium (Sigma-Aldrich®, SP/Brazil) supplemented with 20% foetal bovine serum (Sigma-Aldrich®, SP/Brazil), 10,000 U/mL penicillin, and 10 mg/mL streptomycin (Sigma-Aldrich®, SP/Brazil).
Promastigote forms of L. amazonensis in the log growth phase (10^e6 parasites/mL) were added to 96-well plates and incubated in sextuplicate with the test samples (0.25–10.0 µg/mL). The microplates were incubated at 26 °C for 72 h. Cell viability was assessed by adding 5 mg/mL of MTT ([3-(4,5-dimethylthiazol-2-yl)-2,5-diphenyltetrazolium bromide] (Sigma-Aldrich® SP/Brazil). Results were expressed as the half-maximal inhibitory concentration (IC50) calculated by a nonlinear dose–response regression curve using the statistical program GraphPad PRISM 5.0. Pentamidine (Sigma-Aldrich ® SP/Brazil; 0.25–10 µg/mL) was used as a positive control, and pure Schneider culture medium was used as a negative control.

Series [2] concerns the target rH84Y (Leishmania mexicana, UniProt P36400, D186N/D189S/H209Y/N185D, form not given). In words: Enzyme kinetics and mechanism of inhibition of rH84Y. As to mechanism: key: NCPC: non-competitive inhibition with positive cooperativity; SLNC: simple linear non-competitive inhibition. The settings on record: for α: factor of formation of the ESI complex. Format: biochemical. The procedure: (§1) Studies of cysteine proteases rCPB2.8, rCPB3, and rH84Y inhibition kinetics were performed in different concentrations of Z-FR-AMC in the presence and absence of compounds using 100 mM sodium acetate buffer containing 5 mM EDTA, 100 mM NaCl, 0.01% Triton X-100, and 20% glycerol, at pH 5.5. Aliquots of the enzymes were pre-incubated with 5 mM DTT for 5 min at 37 °C. For every kinetic measurement, the compounds were pre-incubated with each enzyme for 10 min before adding the substrate. All kinetic assays were performed in duplicate. Inhibition constants were determined using different equations, depending on the inhibition mechanism. The assumed KM values of rCPB2.8, rCPB3, and rH84Y for Z-FR-AMC were 3.23 µM, 2.99 µM, and 2.80 µM, respectively. The data of the activity rate and substrate concentration generated rectangular hyperbolic profiles that were linearised using the Lineweaver–Burk double-reciprocal plot. The replot profiles of the slope vs. inhibitor and intercept vs. inhibitor provided Ki and αKi parameters, respectively. If the replots present a parabolic profile, the system involves the participation of a second molecule of the compound, which can bind the enzyme complexed to the first compound (EI), forming IEI, and bind to the ESI complex, forming IESI. Linearisation is required, generating the 1/Kslope vs. inhibitor and 1/Kintercept vs. inhibitor replots, according to Equations (2) and (3). (2) 1/Kslope=1/Ki+[I]/βKi2, (3) 1/Kintercept=1/αKi+[I]/αγKi2, where Ki is the inhibitory constant, [I] is the concentration of inhibitor, α is the factor of formation of the ESI complex (enzyme–substrate–inhibitor complex), β is the factor of formation of the IEI complex (inhibitor–enzyme–inhibitor complex), and γ is the factor of formation of the IESI complex (inhibitor–enzyme–substrate–inhibitor complex) according to the general mechanism (Figure 8). Furthermore, β and γ measure the cooperativity between the binding of the first and second inhibitor molecules to form IEI and IESI, respectively.

Series [3] concerns the target T1, rCPB2.8 (Leishmania mexicana, UniProt P36400).
T1 construct: recombinant enzymes (r) lacking the C-terminal region
In words: Screening of inhibitory activity on rCPB2.8 (Z-FR-MCA hydrolysis). The format is biochemical. The settings on record: for inhibition at 1 µM / inhibition at 5 µM: read-out: Inhibition of rCPB2.8 enzymatic activity. The procedure: The screening assays for the inhibitory activity of the compounds in the rCPB2.8, rCPB3, and rH84Y enzymes were performed using 100 mM sodium acetate buffer containing 5 mM EDTA, 100 mM NaCl, 0.01% Triton X-100, and 20% glycerol, at pH 5.5. Enzyme aliquots were pre-incubated with 5 mM DTT for 5 min at 37 °C. After checking the initial rate of the reaction corresponding to the control, the enzymatic rate was measured at two concentrations of compounds, 1 µM and 5 µM. Enzyme activity was monitored by hydrolysis of the substrate Z-FR-MCA by measuring the fluorescence at λEx = 360 nm and λEm = 480 nm on a Hitachi F2700 spectrofluorometer, obtaining the rate values in UAF/min (arbitrary fluorescence units by minute).

Series [4] addresses rCPB3 (Leishmania mexicana, UniProt P36400, D186N/D189S/N185D, form not given). As to the kind of experiment: Enzyme kinetics and mechanism of inhibition of rCPB3. As to mechanism: key: NCPC: non-competitive inhibition with positive cooperativity; SLNC: simple linear non-competitive inhibition. Format: biochemical. The settings on record: for α: factor of formation of the ESI complex. The procedure: as §1
Series [5] deals with T1, rCPB2.8. In words: Enzyme kinetics and mechanism of inhibition of rCPB2.8. As to mechanism: key: NCPC: non-competitive inhibition with positive cooperativity; SLNC: simple linear non-competitive inhibition. The format is biochemical. The settings on record: for α: factor of formation of the ESI complex; for β: factor of formation of the IEI complex; for γ: factor of formation of the IESI complex. On the procedure:
as §1

Series [6] has as its target T1, rCPB2.8. As to the kind of experiment: Determination of IC50 on rCPB2.8 (Z-FR-AMC). Format: biochemical. On the procedure:
Cysteine proteases rCPB2.8, rCPB3, and rH84Y were assayed in 100 mM sodium acetate buffer containing 5 mM EDTA, 100 mM NaCl, 0.01% Triton X-100, and 20% glycerol, at pH 5.5. The enzymes were pre-incubated in the presence of 5 mM DTT for 5 min at 37 °C in a 1 mL final volume with constant stirring. Enzyme activities were monitored using fluorogenic probe Z-FR-AMC (9.25 µM final concentration), and the fluorescence was monitored by spectrofluorometry using fluorometer F2700 (Hitachi, Tokyo, Japan) set to λEx = 360 nm and λEm = 480 nm. The IC50 evaluation was performed using a progressive increase in the concentration of the compounds; the IC50 values were calculated using nonlinear regression, and the data were analysed by Grafit 5.0.13 software using Equation (1). (1) y=100%/1+(x/IC50)^S.

In series [7] the test system is NIH/3T3 fibroblasts. In words: Cytotoxicity on mammalian cells (sulphorhodamine B). The format is cell-based. The settings on record: for NIH/3T3 Cells GL50: 48 h, concentration that inhibited cell growth by 50%. On the procedure: The cytotoxic effect of the test samples was evaluated on NIH/3T3 fibroblasts, obtained from the Rio de Janeiro Cell Bank (Brazil). Cells were seeded in 96-well plates ([…]). After 24 h of fixation, cells were incubated for 48 h with test samples at 0.25–250 µg/mL, in triplicate. […] Doxorubicin (0.025–25 µg/mL was used as a positive control. Cells were fixed by adding 20% trichloroacetic acid and were subsequently stained with sulphorhodamine B (0.1%) diluted in acetic acid after 48 h of exposure. Absorbance values were read on the PT-READER microplate instrument (Thermoplate®), and growth percentages were calculated according to procedures in the literature. Cytotoxicity activity was expressed as the concentration of drug that inhibited cell growth by 50% (GL50), and growth was determined by nonlinear regression using Origin 6.0 software (OriginLab). The statistical significance was analysed using an unpaired Student’s t-test or a one-way analysis of variance. A p-value < 0.05 was considered statistically relevant. In addition, the SI was calculated using the ratio between cytotoxicity in NHI-3T3 cells (GL50) and activity in the parasite forms (IC50).

Series [8] concerns rH84Y. The format is biochemical, Leishmania mexicana. The settings on record: ratio of IC50 values.
[9] abbreviates: L. amazonensis promastigotes, 26 °C, MTT, highest concentration tested 10 µg/mL.

Sequence of rH84Y (Leishmania mexicana, UniProt P36400, D186N/D189S/H209Y/N185D, form not given) (P36400 126-343 D186N/D189S/H209Y/N185D): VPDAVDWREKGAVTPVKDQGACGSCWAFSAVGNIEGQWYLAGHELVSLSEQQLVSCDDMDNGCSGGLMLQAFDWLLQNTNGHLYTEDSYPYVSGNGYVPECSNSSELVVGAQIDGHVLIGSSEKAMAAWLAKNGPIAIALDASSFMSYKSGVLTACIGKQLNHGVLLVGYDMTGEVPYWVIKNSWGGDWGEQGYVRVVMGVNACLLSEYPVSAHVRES
T1 sequence (P36400 126-343): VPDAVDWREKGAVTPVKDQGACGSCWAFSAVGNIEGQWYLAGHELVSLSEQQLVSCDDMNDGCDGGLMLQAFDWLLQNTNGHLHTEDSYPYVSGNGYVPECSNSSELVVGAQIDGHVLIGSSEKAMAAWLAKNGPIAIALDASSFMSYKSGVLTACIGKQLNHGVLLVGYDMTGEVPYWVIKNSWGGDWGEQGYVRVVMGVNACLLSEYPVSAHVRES
Sequence of rCPB3 (P36400 126-343 D186N/D189S/N185D): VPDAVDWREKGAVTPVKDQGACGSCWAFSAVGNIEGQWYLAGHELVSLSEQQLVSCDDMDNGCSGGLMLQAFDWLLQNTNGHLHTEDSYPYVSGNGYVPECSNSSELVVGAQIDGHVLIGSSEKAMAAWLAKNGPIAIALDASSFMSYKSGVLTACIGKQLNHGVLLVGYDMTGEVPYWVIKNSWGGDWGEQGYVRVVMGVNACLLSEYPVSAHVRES

What is called IC50 is the concentration that gives 50% inhibition. The term inhibition denotes how much of the control response was suppressed. For orientation: Ki means a dissociation constant, usually derived from enzyme kinetics or from competition with a known ligand. Higher therefore signals weaker binding. As to `O=c1c(O)c(-c2ccc3c(c2)OCO3)oc2ccccc12` [Compound f12b, 2-(benzo[d][1, 3]dioxol-5-yl)-3-hydroxy-4H-chromen-4-one], the half-inhibitory concentration (IC50) in series [1] (setting [9]) is > 10 µg/mL; in series [6] it was 5.23 ± 0.32 µM. Besides, the Mechanism entry in series [2] is recorded as “SLNC”; in series [4], “SLNC”; in series [5], “NCPC”. Further, the αKi in series [2] is 6.06 ± 0.24 µM; in series [4] it was 13.7 ± 1.2 µM; in series [5], 24.9 ± 2.3 µM. For the same compound, the α in series [2] amounted to 1; in series [4] it was 1; in series [5], 0.634. For the same compound, the inhibition at 1 µM in series [3] was 69.2%. For the same compound, in series [3], the inhibition at 5 µM worked out at 77.5%. The results for the Ki in series [5] (Ki), in series [5] (βKi) and in series [5] (γKi) were 39.2 ± 4.1 µM, 1.17 ± 0.12 µM and 0.51 ± 0.09 µM, respectively. The β in series [5] was found to be 0.029. The same compound displayed a γ in series [5] of 0.013. Besides, the “NIH/3T3 Cells GL50” value in series [7] is reported as >885.74 µM.

As for `COc1ccc(/C=C/C(=O)c2ccc(Cl)cc2)cc1` [Compound 1a, (E)-1-(4-chlorophenyl)-3-(4-methoxyphenyl)prop-2-en-1-one], the figures for the IC50 in series [1] and in series [6] were > 10 µg/mL and 13.7 ± 0.74 µM, respectively. Moreover, in series [3], the inhibition at 1 µM worked out at 82%. Besides, the “NIH/3T3 Cells GL50” value in series [7] is reported as 294.13 µM.

`COc1ccc(-c2oc3ccccc3c(=O)c2O)cc1` [f12a, 3-hydroxy-2-(4-methoxyphenyl)-4H-chromen-4-one]: in series [1] (setting [9]), the IC50 is > 10 µg/mL. In series [2], the Mechanism entry is on record as “SLNC”, the αKi is on record as 11.2 ± 0.5 µM and the α is given as 1. Moreover, in series [4], the Mechanism result is on record as “SLNC”, the αKi was determined as 7.50 ± 0.66 µM and the α is 1. Further, in series [5], the “Formation of IESI favoured by binding of the first molecule” value turned out to be 50 fold, the Mechanism result was “NCPC”, the αKi was 10.7 ± 1.1 µM and the α amounted to 1. In series [5], this compound had a β of 0.29 and a γ of 0.02. In addition, affinity in series [5] (Ki) was put at a Ki of 12.4 ± 1.4 µM. The Ki in series [5] (βKi) is 3.65 ± 0.39 µM. In series [5] (γKi), this compound registered an inhibition constant Ki of 0.25 ± 0.03 µM. In series [6], this compound returned an IC50 of 4.72 ± 0.38 µM. The “NIH/3T3 Cells GL50” value in series [7] is recorded as >931.93 µM.

Take `CN(C)c1ccc(/C=C/C(=O)c2ccc(Cl)cc2)cc1` [Compound 1c, (E)-1-(4-chlorophenyl)-3-(4-(dimethylamino)phenyl)prop-2-en-1-one]: the “SI (selectivity index)” value in series [1] is on record as >767.39. The concentration for half-maximal inhibition (IC50) in series [1] (setting [9]) worked out at 1.14 µM; in series [6] it was 2.75 ± 0.18 µM. For the same compound, the inhibition at 5 µM in series [3] turned out to be 91.6%. In series [7], the “NIH/3T3 Cells GL50” value is >874.83 µM.

In the case of `CN(C)c1ccc(/C=C/C(=O)c2cc(F)ccc2O)cc1` [Compound 4c, (E)-3-(4-(dimethylamino)phenyl)-1-(5-fluoro-2-hydroxyphenyl)prop-2-en-1-one], in series [1], the “SI (selectivity index)” value is on record as >1752.48. For the same compound, the results for the concentration for half-maximal inhibition (IC50) in series [1] (setting [9]) and in series [6] were 0.5 µM and 9.88 ± 0.73 µM, respectively. In series [8], the “Times more potent in inhibiting rH84Y compared to rCPB3” value was 8.74 times. Further, in series [7], the “NIH/3T3 Cells GL50” value is listed as >876.24 µM. For the same compound, in series [7] (NIH/3T3 cells), the “Cytotoxicity against mammal cells (in words)” value is reported as “noncytotoxic”.

Consider `CN(C)c1ccc(/C=C/C(=O)c2ccccc2O)cc1` [Compound 2c, (E)-3-(4-(dimethylamino)phenyl)-1-(2-hydroxyphenyl)prop-2-en-1-one], for which the 50% inhibitory concentration (IC50) in series [1] was > 10 µg/mL; in series [6], 11.7 ± 0.38 µM. Besides, the “rCPB2.8 activity (increased to)” value in series [3] (1 µM compound, activity relative to control) amounted to 141.71%. Also, the inhibition at 5 µM in series [3] was 25.6%. Moreover, in series [7], the “NIH/3T3 Cells GL50” value was >935.21 µM.
